# Data reported in patent US20250302974A1, “LECTIN-DRUG CONJUGATES” (UNICHEM LABORATORIES LIMITED, priority 2021, published 2025).
# Numbered stars: 1 amine (or outer) side, 2 acyl side, 3 side chain; on linkers, the order of the positions; unused ones are H or OH. Square brackets hold non-standard residues; d marks the D form. Peptide text beside a SMILES is read from it. * marks the point of attachment. Dolaproine = CO[C@@H]([C@@H]1CCCN1)[C@@H](C)C(=O)O; Hexanoyl(6-maleimido) = O=C1C=CC(=O)N1CCCCCC(=O)*; Dil = CC[C@H](C)[C@H](NC)[C@@H](CC(=O)O)OC; PABC = O=C(OCc1ccc(N[*:1])cc1)[*:2]; X1 = C[C@@H](N*)[C@@H](O)c1ccccc1; Cit = NC(=O)NCCC[C@H](N)C(=O)O; NMeV = CN[C@H](C(=O)O)C(C)C
# Assays:
# [1] = target: Sclerotium rolfsii lectin recombinant variant Rec-2, SEQ ID NO: 2 (Agroathelia rolfsii, UniProt A0A0M3KL30); experiment: O-Glycan array binding study (94 glycans)
# [2] = system: human urinary bladder cancer cell line (T-24); experiment: Cytotoxicity assay, cell titer glow luminescence, 72 h; assay type: cell-based; settings: 72 h
# Description: (§1) T-24 Cell line were cultured in McCoy's 5a Medium Modified supplemented with 10% FBS and the PA-1 Cell line was cultured in EMEM Media supplemented with 10% FBS. The assay was performed by plating 5,000 cells/well and incubated at 37° C. overnight. […] Each concentration was added in triplicate and media-only wells used as a control. After incubation for 72 h cell titer glow (Promega) reagent (50 μL) was added to each well and the plates shaken for 5 mins and the luminescence was recorded. Percent viability was determined by dividing luminescence of the treated well by the non-treated well and multiplying by 100. Data was analysed using non-linear regression with a logarithmic scale.
# (§2) 5,000 cells/well were plated and incubated at 37° C. overnight. Conjugates/vehicle control dilutions were made in respective media and added to cells. Volume added: 50 uL to each well. Starting treatment concentration was 1 uM for Conjugate of formula 16 and 18, and control SEQ ID NO: 5 alone and 10% for vehicle control (1×PBS with 20% DMA) and then diluted 10-fold down for a total of 11 treatment dilutions. Each concentration was analysed in triplicates. Media-only wells was used as a control to calculate percent viability. Cell titer glow reagent (volume: 50 uL) was added to each well, the plate was shaken for 5 mins and the luminescence was recorded. Drug Treatment Time: 72 hours. Percent viability was calculated by dividing the luminescence signal obtained for each treated well by the untreated well (media-only control) and multiplying by 100.
# [3] = system: ovarian cancer cell line (PA-1); experiment: as above; assay type: cell-based; settings: 72 h
# Description: as §1, §2
# AGS Stomach = experiment: Cytotoxic effect by MTT assay, 48 h; settings: AGS, 48 h
# Description: (§3) Cells were treated with Test Items at various concentrations (0.0001 μM-10 μM) for 48 h. The cells corresponding to Positive Control group were treated with Doxorubicin at a concentration ranging from 0.1 μM-100 μM. The Untreated cells were used as Control. After 48 h of incubation, the effect of Test Items on cytotoxicity of cells was determined by MTT assay, the plates were taken out and 20 μl of 5 mg/m1 of MTT 3-(4,5-dimethythiazol-2-yl)-2,5-diphenyl tetrazolium bromide solution was added to all the wells. Cells were incubated for 3 h at 37° C. The supernatant was aspirated. 150 μl of DMSO was added to each well to dissolve formazan crystals. The absorbance of each well was then read at 540 nm using Synergy HT micro plate reader.
# (§4) The % Cytotoxicity was calculated using the formula:
# (§5) Where, X=Absorbance of cells treated with Test Item; R=Absorbance of Control cells (Untreated cells maintained in growth medium only).
# (§6) Selectivity Index was calculated using the formula:
# (§7) SI=IC50 in Normal cell/IC50 in cancer cell.
# (§8) Activity scores of the Selective Index values were categorized as: • Not selective (SI value ≤1) • Moderately selective (1<SI value <5) • Selective (SI value ≥5)
# HT29 Colon = experiment: Cytotoxic effect by MTT assay, 48 h; settings: for Percent cytotoxicity wrt control: 48 h
# Description: as §3, §4, §5, §6, §7, §8
# KB Cervix = experiment: Cytotoxic effect by MTT assay, 48 h; settings: for Percent cytotoxicity wrt control: KB, 48 h
# Description: as §3, §4, §5, §6, §7, §8
# MDA-MB-231 Breast = experiment: Cytotoxic effect by MTT assay, 48 h; settings: for Percent cytotoxicity wrt control: 48 h
# Description: as §3, §4, §5, §6, §7, §8
# MG-63 Bone = experiment: Cytotoxic effect by MTT assay, 48 h; settings: for Percent cytotoxicity wrt control: 48 h
# Description: as §3, §4, §5, §6, §7, §8
# PA-1 Ovary = experiment: Cytotoxic effect by MTT assay, 48 h; settings: for Percent cytotoxicity wrt control: 48 h
# Description: as §3, §4, §5, §6, §7, §8
# PANC-1 Pancreatic = experiment: Cytotoxic effect by MTT assay, 48 h; settings: for Percent cytotoxicity wrt control: 48 h
# Description: as §3, §4, §5, §6, §7, §8
# T24 Bladder = experiment: Cytotoxic effect by MTT assay, 48 h; settings: for Percent cytotoxicity wrt control: 48 h
# Description: as §3, §4, §5, §6, §7, §8
# U251 MG Brain = experiment: Cytotoxic effect by MTT assay, 48 h; settings: for Percent cytotoxicity wrt control: U251 MG, 48 h
# Description: as §3, §4, §5, §6, §7, §8
# A549 Lungs = experiment: Cytotoxic effect by MTT assay, 48 h; settings: for Percent cytotoxicity wrt control: 48 h
# Description: as §3, §4, §5, §6, §7, §8
# PBMC Normal = experiment: Cytotoxic effect by MTT assay, 48 h; settings: for Percent cytotoxicity wrt control: PBMC, 48 h
# Description: as §3, §4, §5
# PA-1 cells = experiment: Cytotoxicity (cell titer glo, 72 h) ovarian cancer cell line PA-1; assay type: cell-based; settings: Homo sapiens, PA-1 cell line
# Description: as §1
# 5,000 cells/well were plated and incubated at 37° C. overnight. Conjugates/vehicle control dilutions were made in respective media and added to cells. Volume added: 50 uL to each well. […] Each concentration was analysed in triplicates. […] Cell titer glow reagent (volume: 50 uL) was added to each well, the plate was shaken for 5 mins and the luminescence was recorded. […] Percent viability was calculated by dividing the luminescence signal obtained for each treated well by the untreated well (media-only control) and multiplying by 100.
molecule,measurement,setting,value
"CC(=O)N[C@@H]1[C@@H](O[C@@H]2O[C@H](CO)[C@H](O)[C@H](O)[C@H]2O)[C@@H](O)[C@@H](CO)O[C@@H]1O [T antigen, Galβ1-3GalNAcα]",Estimated Kd,[1],0.319 ug/m
same,glycan binding,[1],Main binding motifs
COc1cc2c(cc1OCCCCCOc1cc3c(cc1OC)C(=O)N1C=C(C)C[C@H]1[C@H](O)N3C(=O)OCc1ccc(NC(=O)[C@H](C)NC(=O)[C@@H](NC(=O)CCOCCOCCOCCOCCOCCOCCOCCOCCNC(=O)CCN3C(=O)C=CC3=O)C(C)C)cc1)N=C[C@@H]1CC(C)=CN1C2=O [Tesirine],IC50,[2],145 nM
same,IC50,[3],13.4 nM
same,Percent cytotoxicity wrt control,AGS Stomach; 0.0001 μM,66.4%
same,Percent cytotoxicity wrt control,AGS Stomach; 0.01 μM,77.8%
same,Percent cytotoxicity wrt control,AGS Stomach; 0.1 μM,81.3%
same,Percent cytotoxicity wrt control,AGS Stomach; 1 μM,81.3%
same,Percent cytotoxicity wrt control,AGS Stomach; 10 μM,81.6%
same,Percent cytotoxicity wrt control,"HT29 Colon; HT29, 0.0001 μM",37.4%
same,Percent cytotoxicity wrt control,"HT29 Colon; HT29, 0.001 μM",44.5%
same,Percent cytotoxicity wrt control,"HT29 Colon; HT29, 0.01 μM",47.7%
same,Percent cytotoxicity wrt control,"HT29 Colon; HT29, 0.1 μM",48.3%
same,Percent cytotoxicity wrt control,"HT29 Colon; HT29, 1 μM",49%
same,IC50,"HT29 Colon; read-out: IC50 Values, HT29 Colon, after 48 h of treatment",20 nM
same,Percent cytotoxicity wrt control,KB Cervix; 0.0001 μM,−9.5%
same,Percent cytotoxicity wrt control,KB Cervix; 0.001 μM,1%
same,Percent cytotoxicity wrt control,KB Cervix; 0.01 μM,76.2%
same,Percent cytotoxicity wrt control,KB Cervix; 0.1 μM,93.8%
same,Percent cytotoxicity wrt control,KB Cervix; 1 μM,89.1%
same,Percent cytotoxicity wrt control,KB Cervix; 10 μM,92.7%
same,IC50,"KB Cervix; read-out: IC50 Values, KB Cervix, after 48 h of treatment",6 nM
same,Percent cytotoxicity wrt control,"MDA-MB-231 Breast; MDA-MB-231, 0.001 μM",41.9%
same,Percent cytotoxicity wrt control,"MDA-MB-231 Breast; MDA-MB-231, 1 μM",69.2%
same,IC50,"MDA-MB-231 Breast; read-out: IC50 Values, MDA-MB-231 Breast, after 48 h of treatment",1.4 nM
same,Percent cytotoxicity wrt control,"MG-63 Bone; MG-63, 0.0001 μM",46.6%
same,Percent cytotoxicity wrt control,"MG-63 Bone; MG-63, 0.001 μM",69.4%
same,Percent cytotoxicity wrt control,"MG-63 Bone; MG-63, 0.01 μM",81.2%
same,Percent cytotoxicity wrt control,"MG-63 Bone; MG-63, 1 μM",82.3%
same,IC50,"MG-63 Bone; read-out: IC50 Values, MG-63 Bone, after 48 h of treatment",0.03 nM
same,Percent cytotoxicity wrt control,"PA-1 Ovary; PA-1, 0.001 μM",66.8%
same,Percent cytotoxicity wrt control,"PA-1 Ovary; PA-1, 0.01 μM",79.1%
same,Percent cytotoxicity wrt control,"PA-1 Ovary; PA-1, 1 μM",78.1%
same,Percent cytotoxicity wrt control,"PA-1 Ovary; PA-1, 10 μM",80.5%
same,IC50,"PA-1 Ovary; read-out: IC50 Values, PA-1 Ovary, after 48 h of treatment",0.00599 nM
same,Percent cytotoxicity wrt control,"PANC-1 Pancreatic; PANC-1, 0.0001 μM",46.6%
same,Percent cytotoxicity wrt control,"PANC-1 Pancreatic; PANC-1, 0.001 μM",51.1%
same,Percent cytotoxicity wrt control,"PANC-1 Pancreatic; PANC-1, 0.01 μM",58.3%
same,Percent cytotoxicity wrt control,"PANC-1 Pancreatic; PANC-1, 0.1 μM",55%
same,Percent cytotoxicity wrt control,"PANC-1 Pancreatic; PANC-1, 10 μM",71%
same,IC50,"PANC-1 Pancreatic; read-out: IC50 Values, PANC-1 Pancreatic, after 48 h of treatment",0.7 nM
same,Percent cytotoxicity wrt control,"T24 Bladder; T24, 0.0001 μM",57.5%
same,Percent cytotoxicity wrt control,"T24 Bladder; T24, 0.001 μM",60.6%
same,Percent cytotoxicity wrt control,"T24 Bladder; T24, 0.01 μM",57.5%
same,Percent cytotoxicity wrt control,"T24 Bladder; T24, 0.1 μM",61.4%
same,Percent cytotoxicity wrt control,"T24 Bladder; T24, 1 μM",62.7%
same,Percent cytotoxicity wrt control,"T24 Bladder; T24, 10 μM",80.4%
same,IC50,"T24 Bladder; read-out: IC50 Values, T24 Bladder, after 48 h of treatment",2 nM
same,Percent cytotoxicity wrt control,U251 MG Brain; 0.001 μM,26.5%
same,Percent cytotoxicity wrt control,U251 MG Brain; 0.01 μM,23.1%
same,Percent cytotoxicity wrt control,U251 MG Brain; 0.1 μM,19.2%
same,Percent cytotoxicity wrt control,U251 MG Brain; 1 μM,27.2%
same,Percent cytotoxicity wrt control,U251 MG Brain; 10 μM,60.5%
same,IC50,"U251 MG Brain; read-out: IC50 Values, U251 MG Brain, after 48 h of treatment",6820 nM
same,Percent cytotoxicity wrt control,"A549 Lungs; A549, 0.0001 μM",13.7%
same,Percent cytotoxicity wrt control,"A549 Lungs; A549, 0.1 μM",45.2%
same,Percent cytotoxicity wrt control,"A549 Lungs; A549, 1 μM",53.3%
same,Percent cytotoxicity wrt control,"A549 Lungs; A549, 10 μM",66.7%
same,IC50,"A549 Lungs; read-out: IC50 Values, A549 Lungs, after 48 h of treatment",390 nM
same,Percent cytotoxicity wrt control,PBMC Normal; 0.0001 μM,16.9%
same,Percent cytotoxicity wrt control,PBMC Normal; 0.01 μM,40.3%
same,Percent cytotoxicity wrt control,PBMC Normal; 0.1 μM,38.7%
same,Percent cytotoxicity wrt control,PBMC Normal; 1 μM,38.2%
same,IC50,"PBMC Normal; read-out: IC50 Values, PBMC Normal, after 48 h of treatment",5090 nM
CC(=O)N[C@H]1[C@H](OC[C@H]2OC(O)[C@H](NC(C)=O)[C@@H](O[C@@H]3O[C@H](CO)[C@H](O)[C@H](O)[C@H]3O)[C@H]2O)O[C@H](CO)[C@@H](O)[C@@H]1O (stereo partly shown) [core 2],Estimated Kd,[1],0.212 ug/m
same,glycan binding,[1],Main binding motifs
Sialyl T antigen,Estimated Kd,[1],0.670 to 1.756 ug/m
same,glycan binding,[1],Main binding motifs
CC[C@H](C)[C@@H]([C@@H](CC(=O)N1CCC[C@H]1[C@H](OC)[C@@H](C)C(=O)N[C@H](C)[C@@H](O)c1ccccc1)OC)N(C)C(=O)[C@@H](NC(=O)[C@H](C(C)C)N(C)C(=O)OCc1ccc(NC(=O)[C@H](CCCNC(N)=O)NC(=O)[C@@H](NC(=O)CCCCCN2C(=O)C=CC2=O)C(C)C)cc1)C(C)C [mc-vc-PAB-MMAE] ({Hexanoyl(6-maleimido)}-V[Cit][PABC][NMeV]V[Dil][Dolaproine]-X1),IC50,[3],647 nM
same,IC50,PA-1 cells,647 nM
